Test results as given in patent publication US20090311217A1, “3-SUBSTITUTED-1H-INDOLE COMPOUNDS, THEIR USE AS MTOR KINASE AND PI3 KINASE INHIBITORS, AND THEIR SYNTHESES” (priority 2008, published 2009).
pIC50: −log10 of the molar value. Where two headings read alike, the source gives them in different places.

Key:
human TOR = biological target: T1, human TOR (Homo sapiens, UniProt P42345); test: mTOR enzyme assay (DELFIA, His6-S6K substrate); type: biochemical
T1 construct: FLAG

PI3K-alpha = PI3K-alpha (Homo sapiens, UniProt P42336); test: PI3K-alpha fluorescence polarization assay; type: biochemical
[1] = read-out: mTOR Kinase Avg. IC50

PI3K-alpha, sequence (P42336 whole entry, species assumed): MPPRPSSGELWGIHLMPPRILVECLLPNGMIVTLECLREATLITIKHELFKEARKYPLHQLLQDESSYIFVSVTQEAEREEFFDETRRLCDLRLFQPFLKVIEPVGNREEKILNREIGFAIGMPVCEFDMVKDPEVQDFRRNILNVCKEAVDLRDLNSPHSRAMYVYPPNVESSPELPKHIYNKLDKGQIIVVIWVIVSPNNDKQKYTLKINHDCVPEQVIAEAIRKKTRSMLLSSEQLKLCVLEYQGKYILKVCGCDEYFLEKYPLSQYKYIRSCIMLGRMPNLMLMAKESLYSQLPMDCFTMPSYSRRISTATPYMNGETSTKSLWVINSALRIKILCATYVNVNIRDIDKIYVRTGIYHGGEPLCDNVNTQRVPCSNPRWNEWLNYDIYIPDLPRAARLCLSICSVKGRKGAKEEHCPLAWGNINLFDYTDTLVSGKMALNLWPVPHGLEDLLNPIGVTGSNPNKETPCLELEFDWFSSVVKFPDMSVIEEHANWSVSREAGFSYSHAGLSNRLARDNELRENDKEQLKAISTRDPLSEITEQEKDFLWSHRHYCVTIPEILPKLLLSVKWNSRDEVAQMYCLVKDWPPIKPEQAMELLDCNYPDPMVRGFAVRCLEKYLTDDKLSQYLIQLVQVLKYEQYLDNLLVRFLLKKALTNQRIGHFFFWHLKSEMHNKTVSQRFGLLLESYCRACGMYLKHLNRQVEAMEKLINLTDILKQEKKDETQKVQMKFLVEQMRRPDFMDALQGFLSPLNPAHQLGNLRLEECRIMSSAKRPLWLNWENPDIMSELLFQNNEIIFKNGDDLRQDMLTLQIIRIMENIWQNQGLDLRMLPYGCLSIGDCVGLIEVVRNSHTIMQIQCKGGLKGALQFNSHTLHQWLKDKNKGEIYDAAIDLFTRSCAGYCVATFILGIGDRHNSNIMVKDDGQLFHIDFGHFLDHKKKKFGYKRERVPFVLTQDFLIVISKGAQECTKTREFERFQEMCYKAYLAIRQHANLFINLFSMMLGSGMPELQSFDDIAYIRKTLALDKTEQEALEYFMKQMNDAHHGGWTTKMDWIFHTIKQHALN
PI3K-alpha, sequence (P27986 whole entry partner, species assumed): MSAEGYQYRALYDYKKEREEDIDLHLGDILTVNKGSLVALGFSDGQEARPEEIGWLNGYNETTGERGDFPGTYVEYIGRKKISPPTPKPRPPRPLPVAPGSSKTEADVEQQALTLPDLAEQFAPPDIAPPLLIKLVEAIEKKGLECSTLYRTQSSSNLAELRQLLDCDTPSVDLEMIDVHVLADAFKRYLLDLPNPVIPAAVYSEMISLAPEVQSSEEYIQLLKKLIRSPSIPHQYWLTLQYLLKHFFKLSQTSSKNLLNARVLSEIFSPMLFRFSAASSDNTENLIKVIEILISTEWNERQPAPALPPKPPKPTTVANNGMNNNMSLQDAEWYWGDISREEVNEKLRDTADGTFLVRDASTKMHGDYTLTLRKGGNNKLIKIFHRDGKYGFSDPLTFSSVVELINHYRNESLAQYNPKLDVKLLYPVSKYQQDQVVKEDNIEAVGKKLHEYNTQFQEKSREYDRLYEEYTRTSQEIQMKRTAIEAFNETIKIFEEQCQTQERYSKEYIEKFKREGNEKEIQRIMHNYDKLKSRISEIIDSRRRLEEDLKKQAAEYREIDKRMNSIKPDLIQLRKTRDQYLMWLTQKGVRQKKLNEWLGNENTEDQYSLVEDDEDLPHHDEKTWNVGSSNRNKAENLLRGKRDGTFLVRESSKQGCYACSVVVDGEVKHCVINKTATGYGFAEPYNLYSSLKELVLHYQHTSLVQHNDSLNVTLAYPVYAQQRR

Row | SMILES | pIC50 (human TOR; [1]) | pIC50 (PI3K-alpha; read-out: PI3Kα Avg. IC50) | pIC50 (PI3K-alpha; PI3Kα Avg. IC50) | pIC50 (human TOR; mTOR Kinase Avg. IC50)
1 | O=C1C(=Cc2c(-c3ccccc3)n(Cc3cccnc3)c3ccccc23)Oc2cc(O)cc(O)c21 [Example 153, 4,6-dihydroxy-2-{[2-phenyl-1-(pyridin-3-ylmethyl)-1H-indol-3-yl]methylene}-1-benzofuran-3(2H)-one] | 5.54 | 5.80 | – | –
2 | O=C1C(=Cc2c[nH]c3cc(C(F)(F)F)ccc23)Oc2cc(O)cc(O)c21 [Example 221, 4,6-dihydroxy-2-{[6-(trifluoromethyl)-1H-indol-3-yl]methylene}-1-benzofuran-3(2H)-one] | < 4.70 | 5.94 | – | –
3 | O=C1/C(=C/c2c(-c3ccc(F)cc3)[nH]c3ccccc23)Oc2cc(O)cc(O)c21 [Example 46, (2Z)-2-{[2-(4-fluorophenyl)-1H-indol-3-yl]methylene}-4,6-dihydroxy-1-benzofuran-3(2H)-one] | 6.91 | – | 5.80 | –
4 | Cn1cc(C=C2Oc3cc(O)cc(O)c3C2=O)c2c(O)cccc21 [Example 254, 4,6-dihydroxy-2-[(4-hydroxy-1-methyl-1H-indol-3-yl)methylene]-1-benzofuran-3(2H)-one] | 6.19 | 5.78 | – | –
5 | N#Cc1cccc2[nH]cc(C=C3Oc4cc(O)cc(O)c4C3=O)c12 [Example 220, 3-[(4,6-dihydroxy-3-oxo-1-benzofuran-2(3H)-ylidene)methyl]-1H-indole-4-carbonitrile] | 5.37 | 5.70 | – | –
6 | O=C1C(=Cc2c[nH]c3ccc([N+](=O)[O-])cc23)Oc2cc(O)cc(O)c21 [Example 178, 4,6-dihydroxy-2-[(5-nitro-1H-indol-3-yl)methylene]-1-benzofuran-3(2H)-one] | 4.90 | 5.83 | – | –
7 | O=C1C(=Cc2c[nH]c3ccccc23)Oc2cc(O)cc(O)c21 [Example 13, 4,6-dihydroxy-2-(1H-indol-3-ylmethylene)-1-benzofuran-3(2H)-one] | – | – | 5.17 | 5.04
8 | COC(=O)c1cccc2c1c(C=C1Oc3cc(O)cc(O)c3C1=O)cn2C [Example 267, methyl 3-[(4,6-dihydroxy-3-oxo-1-benzofuran-2(3H)-ylidene)methyl]-1-methyl-1H-indole-4-carboxylate] | 7.07 | 5.69 | – | –
9 | CN(C)CCn1cc(C=C2Oc3cc(O)cc(O)c3C2=O)c2c(C#N)cccc21 [Example 265, 3-[(4,6-dihydroxy-3-oxo-1-benzofuran-2(3H)-ylidene)methyl]-1-[2-(dimethylamino)ethyl]-1H-indole-4-carbonitrile] | 5.89 | < 5.00 | – | –
10 | O=C1C(=Cc2c(-c3ccccc3)n(Cc3ccncc3)c3ccccc23)Oc2cc(O)cc(O)c21 [Example 154, 4,6-dihydroxy-2-{[2-phenyl-1-(pyridin-4-ylmethyl)-1H-indol-3-yl]methylene}-1-benzofuran-3(2H)-one] | 6.27 | 5.80 | – | –
11 | Cc1c(C=C2Oc3cc(O)cc(O)c3C2=O)c2ccccc2n1CCCCl [Example 93, 2-{[1-(3-chloropropyl)-2-methyl-1H-indol-3-yl]methylene}-4,6-dihydroxy-1-benzofuran-3(2H)-one] | < 5.30 | 5.62 | – | –
12 | Cc1ccc2c(/C=C3\Oc4cc(O)cc(O)c4C3=O)c[nH]c2c1 [Example 48, (2Z)-4,6-dihydroxy-2-[(6-methyl-1H-indol-3-yl)methylene]-1-benzofuran-3(2H)-one] | < 5.30 | 5.47 | – | –
13 | O=C1C(=Cc2c(Br)[nH]c3ccccc23)Oc2c1ccc(O)c2O [Example 81, 2-[(2-bromo-1H-indol-3-yl)methylene]-6,7-dihydroxy-1-benzofuran-3(2H)-one] | < 4.70 | 6.63 | – | –
14 | CCc1cccc2c(C=C3Oc4cc(O)cc(O)c4C3=O)c[nH]c12 [Example 187, 2-[(7-ethyl-1H-indol-3-yl)methylene]-4,6-dihydroxy-1-benzofuran-3(2H)-one] | < 4.70 | 5.30 | – | –
